Results: US9867832B2, “Pharmaceutical composition for inhibiting immune response through inducing differentiation into regulator T cells and promoting proliferation of regulator T cells” (LG CHEM, LTD., priority 2013, dated 2018)

How the values were obtained:
[1] = system: GVHD mouse model; test: Allogeneic immune response (GVHD) mouse model: survival, body weight, GVHD clinical score, large intestine histology; assay type: in vivo
Method: 6-8 week-old C57BL/6 (H-2kb) mouse and BALB/c (H-2kd) mouse which have different MHC class from each other were purchased from OrientBio Co., Ltd. After passing the regulation of the management committee of the Department of Laboratory Animal, The Catholic University of Korea, the mice were used under its care. A recipient mouse BALB/c (H-2kd) was irradiated with systemic radiation at 800 cGy. Within 24 hours, bone marrow 5×10^6 cells and spleen 5×10^6 cells isolated from a donor mouse C57BL/6 […] were transplanted into the allogeneic recipient mouse intravenously to induce a graft-versus-host rejection reaction model. The bone marrow-transplanted mouse was observed and evaluation was made of the following: weight, pose, activity, hair condition and skin density with evaluation criteria on the total ten-point scale, two points per each item (Table 1).
4 μm of serial sections were obtained from the paraffin-embedded tissue, treated with xylene three times to remove paraffin, and then hydrated stepwise in 95%, 90% and 70% ethanol. After removing endogenous peroxidase in 0.5% hydrogen peroxide, the specimen was treated with normal goat serum for 30 minutes and then reacted with primary antibody which was diluted with 3% bovine serum albumin (BSA) in PBS according to the manufacturer's instruction for 1 hour. After primary antibody reaction to the expressed proteins directed to genes showing the difference of expression in the above study, the specimen was washed with Tris-buffered saline (TBS) three times, reacted with 5 μg/ml biotinylated anti-mouse/anti-rabbit IgG diluted in 3% BSA for 30 minutes and washed with TBS three times. The specimen was kept in 3 μg/ml horseradish peroxidase streptoavidin for 30 minutes, color development was carried out by the use of DAB and hydrogen peroxide, and counter staining was carried out with Meyer's hematoxylin or 1% methyl green. […]

[2] = system: reactive oxygen species (ROS); test: Measurement of reactive oxygen species (ROS) in spleen cells of GVHD mice; assay type: in vivo; conditions: GVHD mouse spleen cells; 7th and 14th day; dose- and time-dependent; vs control group
Method: Animals of each group were sacrificed, and their spleens were isolated. After single-cell isolation, the obtained cells were washed with phosphate-buffered saline (PBS) twice. The reaction with 3 μM carboxy-H2DCFDA reagent was carried out at 37° C. for 10 minutes. After washing with PBS, the analysis was carried out with a flow cytometer at 540 nm.
Accordingly, the present inventors observed immune response by oxidative stress via GVHD mouse model.

[3] = system: HMGB1; test: Real-time PCR of HMGB1 expression in spleen cells of GVHD mice; assay type: in vivo; conditions: GVHD mouse spleen cells, 7th and 14th day, time-dependent, vs control group
Method: Total RNA was extracted from the cells by the use of TRIzol reagent. 1 μg of RNA was reacted with AMV reverse transcriptase and random hexamer at 45° C. for 1 hour to synthesize cDNA. Real-time PCR was carried out by the use of a mixture in which 1 μg of cDNA as a template, primer S, primer AS and distilled water were mixed, and SYBR Green. The PCR was carried out by the use of I-IMGB 1 (5′-GATGGGCAAAGGAGATCCTAAG-3′ and 5′-TCACTTTTTTGTCTCCCCTTTGGG-3′) with the condition of 35 cycles of at 95° C. for 15 seconds, at 60° C. for 10 seconds and at 72° C. for 30 seconds. Fluorescent data were measured by the use of Rad CFX96 Real-Time System (Bio-Rad Laboratories).
It has been well known that the release of HMGB1 has a possibility of the function for regulating inflammation and immunity. Therefore, in this study the animals of the test group in which GVHD mouse model was treated with the compound of the present invention and the control model was sacrificed, RNA was extracted from spleen cells, and then cDNA was synthesized and a comparative study on the expression of HMGB1 was carried out by real-time PCR.

[4] = system: CD4+CD25+Foxp3+ regulatory T cells; test: Flow cytometry of spleen cells of GVHD mice (regulatory T cells, CD4+IL-4, CD4+IFN-γ); assay type: in vivo; conditions: GVHD mouse spleen
Method: Mice were divided into a GVHD group in which (tetrahydropyran-4-yl)-[2-phenyl-5-(1,1-dioxo-thiomorpholin-4-yl)methyl-1H-indol-7-yl]amine (LG Life Sciences Ltd., Daejeon, Korea, hereinafter referred to as “Compound A”) was treated as a test group and a GVHD group in which Compound A was not treated as a control group. The spleens of each group were isolated and single-cell isolation was then carried out. The expression of CD4+CD25+Foxp3+, which is the phenotype of regulatory T cell, and CD4+IFN-γ cells and CD4+IL-4 cells were analyzed by the use of fluorescent monoclonal antibodies and a flow cytometer.
The present inventors found out that in GVHD mouse model, immune transplant rejection was decreased, the production of ROS and HMGB1, and cellular necrosis in tissues were suppressed by the compound of the present invention, so that they intended to observe the possibility of regulating immune response in immune disease animal model. Accordingly, mice of the test group in which the compound of the present invention was treated and the control group were sacrificed, their spleens were isolated, single-cell isolation was carried out, and the function of immune regulation was searched via flow cytometry. As a result, in the group in which the compound of the present invention was treated CD4+CD25+Foxp3+ immune regulatory cells (regulatory T cells) were increased 6 times or more, as compared with the control group. […] In GVHD model, after irradiation of high-dose radiation the transplanted T cells of the donor are activated and proliferated by antigen-presenting cells of the host to secrete IFN-γ which is known as a representative GVHD causing cytokine. […] Therefore, it can be known that the compound of the present invention can suppress immune response by suppressing the activation of the transplanted T cells.

[5] = system: CD4+ T cells isolated from mouse spleen cells; test: In vitro differentiation of CD4+ T cells into regulatory T cells (aCD3, aCD28, TGF-beta); assay type: cell-based
Method: Experimentation for investigating the effect of the compound of the present invention on the differentiation of lymphocyte Th cells was carried out. 5×10^5 CD4+ T cells isolated from mouse spleen cells were dispensed into a 24-well plate coated with 1 μg/ml of anti-CD3 (aCD3), and then treated with 1 μg/ml of […] (aCD28) and 5 ng/ml of TGF-beta to induce the differentiation into regulatory T cells for 3 days. Before the differentiation into regulatory T cells, the compound (tetrahydropyran-4-yl)-[2-phenyl-5-(1,1-dioxo-thiomorpholin-4-yl)methyl-1H-indol-7-yl]amine (hereinafter referred to as “Compound A”) (LG Life Sciences Ltd., Daejeon, Korea) of the present invention was treated with the concentration of 40 μM and 80 μM. For flow cytometry, anti-mouse CD4 PerCP, CD25 APC and FoxP3 PE fluorescence-labeled antibodies were added thereto and reacted at 4° C. for 30 minutes. After washing with PBS, the measurement was carried out with a flow cytometer (FACSCalibur™)
In the course that 5×10^5 CD4^+ T cells isolated from mouse spleen cells were dispensed into a 24-well plate coated with 1 μg/ml of anti-CD3 (aCD3), and then treated with 1 μg/ml of […] (aCD28) and 5 ng/ml of TGF-beta to induce the differentiation into regulatory T cells for 3 days, the groups were divided into (1) 40 μM or 80 μM of Compound A single-treated group, (2) 0.1 μM of retinoic acid (RA) single-treated group, (3) 1 μM of retinal treated group, (4) 0.1 μM of RA and 40 μM or 80 μM of Compound A treated group, and (5) 1 μM of retinal and 40 μM or 80 μM of Compound A treated group, and the effect on the differentiation into regulatory T cells of each group was then compared.

[6] = system: CD4+ T cells isolated from the spleen cells of C57BL/6; test: Differentiation into regulatory T cells in allogeneic immune cells in vitro; assay type: cell-based, mouse; conditions: C57BL/6 CD4+ T cells with irradiated BALBc APCs; 5 days; various concentrations
Method: 1×10^6 CD4^+ T cells isolated from the spleen cells of C57BL/6 and BALBc antigen-presenting cells (APCs) irradiated at 20 Gy were added to a 48-well plate and incubated at 37° C. for 5 days. The incubation was carried out under the condition that allogeneic immune response by antigen-presenting cells is induced to the spleen cells, and the treatment with Compound A at various concentrations before incubation was carried out for comparative analysis. The cells were harvested after 5-day incubation, and for flow cytometry anti-mouse CD4 PerCP, CD25 APC and FoxP3 PE fluorescence-labeled antibodies were added thereto and reacted at 4° C. for 30 minutes. After washing with PBS, the measurement was carried out with a flow cytometer (FACSCalibur™).

[7] = system: CD4+CD25+Foxp3+ regulatory T cells; test: Increase of regulatory T cells in in vivo GVHD mouse model (Example 10); conditions: intravenous, four times a week for two weeks, spleen flow cytometry
Method: 6-8 week-old C57BL/6 (H-2kb) mouse and BALB/c (H-2kd) mouse which have different MHC class from each other were used. A recipient mouse BALB/c (H-2kd) was irradiated with systemic radiation at 8 Gy. Within 24 hours, bone marrow 5×10^6 cells and spleen 5×10^6 cells isolated from a donor mouse C57BL/6 […] were transplanted into the recipient mouse intravenously to induce graft-versus-host rejection reaction model (GVHD model). Compound A was intravenously injected into the GVHD model four times a week for two weeks. Mice were sacrificed, single-cell isolation was carried out, and the function of immune regulation in the spleen was investigated via flow cytometry. As a result, it was confirmed that in the group in which Compound A was administered CD4^+CD25^+Foxp3^+ regulatory T cells were increased.

With `O=S1(=O)CCN(Cc2cc(NC3CCOCC3)c3[nH]c(-c4ccccc4)cc3c2)CC1` [Compound A, (tetrahydropyran-4-yl)-[2-phenyl-5-(1,1-dioxo-thiomorpholin-4-yl)methyl-1H-indol-7-yl]amine] the survival rate ([1]; 0.3 or 1 mg/kg (FIG. 2), compared with non-treated group) was “considerably increased”, the body weight ([1]; FIGS. 1 and 2) was “significant results” and the “graft-versus-host reaction (GVHD clinical score)” value ([1]; FIGS. 1 and 2) was “significant results”. For the same molecule, the “generation ratio of reactive oxygen species in cells” value [2] was “significantly suppressed”, the “release (expression) of HMGB1” value [3] was “significantly suppressed” and the “increase of CD4+CD25+Foxp3+ immune regulatory cells (regulatory T cells)” value ([4]; compared with control group) was no less than 6 times. The “CD4+IFN-γ” value ([4]; vs control group) was “decreased by more than half”, the “CD4+IL-4 cells” value ([4]; vs control group) was “increased” and the “differentiation into regulatory T cells” value ([5]; CD4+ T cells with aCD3, aCD28, TGF-beta, 40 μM and 80 μM) was “increased in a Compound A concentration-dependent manner”. The “expression of Foxp3+” value ([5]; CD4+ T cells with aCD3, aCD28, TGF-beta, 40 μM and 80 μM, 3 days, vs control without Compound A) was “nearly doubled”, the “expression of Foxp3+ (alone or in combination)” value ([5]; aCD3, aCD28, TGF-beta, Compound A 40 or 80 μM, RA 0.1 μM, retinal 1 μM) was “increased to a similar extent to the case of treating retinal or RA” and the “regulatory T cells” value [6] was “increased according to the concentration of Compound A”. The “CD4+CD25+Foxp3+ regulatory T cells” value [7] was “increased”.
